Test results published in patent US20150342195A1, “ANTI-MICROBIAL COMPOSITIONS, PREPARATIONS, METHODS, AND USES” (MYCO SCIENCES LIMITED, priority 2014, published 2015).
Read-outs that look alike come from different tables or passages of the source.

Key:
Magnaporthe oryzae = test: microbe, parasite or virus in culture; type: cell-based; conditions: for Average diameter of fungal growth: Cu—Zn#12 0%, plug subtracted
Fusarium graminearum = test: microbe, parasite or virus in culture; type: cell-based; conditions: for IC50: Fusarium graminearum
Botrytis cinerea = test: Fungal growth inhibition assay (hyphal growth diameter on PDA); type: cell-based; conditions: for IC50: Botrytis cinerea
Rhizoctonia solani = test: as above; type: cell-based; conditions: for IC50: Rhizoctonia solani
Alternaria alternata = test: as above; type: cell-based; conditions: for IC50: Alternaria alternata
Ustilago maydis = test: as above; type: cell-based; conditions: for IC50: Mycosarcoma maydis
Aspergillus niger = test: as above; type: cell-based; conditions: for IC50: Aspergillus niger
[1] = tested on: Mycosphaerella graminicola; test: as above; type: cell-based
Method: The fungal strains used in these studies are described in TABLE 2. The strains were routinely cultured in 9 centimeter Petri dishes containing 10 milliliters of potato dextrose agar (PDA) at room temperature (22° C.) apart from U. maydis (28° C.).
(§1) To assess the effects of compositions on fungal growth, 10 microliters of the test compositions diluted in sterile distilled water were placed in the wells of a 12-well tissue culture plate and 1 milliliter of liquid PDA was added by pipette to each well. Where multiple samples were added to each well, the 10 microliter drops were kept separate until they were mixed by the addition of hot liquid PDA and the plate was then agitated to evenly distribute the test composition(s) evenly through the agar (distilled water was used as vehicle control) and then the agar was allowed to set. […] To assess the effects of compositions on fungal growth in all experiments, the diameter of the hyphal growth was measured twice at a 90° angle using a ruler and the average diameter in millimeters was calculated. If no fungal growth could be detected by eye, the cultures were observed by phase microscopy (40×) to confirm that there was no growth (NG).

plant pathogenic fungi = test: organism not typed; type: cell-based; conditions: for fungal growth with KS: 1000 milligrams/liter KS
Trichophyton rubrum = test: Fungal growth inhibition assay with Trichophyton rubrum; type: cell-based
Method: as §1, with “set. For most strains (see TABLE 2), plugs of agar containing fungal hyphae (2 to 3 millimeters in diameter) from the edge of an established fungal culture were carefully cut out using a scalpel and inserted into holes cut in the centre of the agar in each well of the 12-well plate. With B. cinerea and U. maydis, mature cultures were washed with 3 ml of sterile distilled water and the spore suspensions obtained were adjusted to O.D. (at 600 nanometers) of 1.0 and 1.5, respectively. A small hole (˜1 millimeter) was made in the center of the PDA in each well with a yellow pipette tip and 1.5 microliters of spore suspension was carefully pipetted into the hole.” for “set.”
A clinical isolate of T. rubrum (strain 7107996; Phylum: Acomycota) was kindly provided by Dr. Richard Barton, Leeds University, UK. The growth assays with T. rubrum were as described in EXAMPLE 1, except this strain was cultured at 33° C. on PDA for 6 or 7 days when growth was assessed. T. rubrum cultures were maintained on Sabouraud dextrose agar at 33° C.
FIG. 8 is a graph depicting the effects of selected compositions and compounds on the growth of Trichophyton rubrum. The culture period was 7 days. Growth in the control cultures was 20±0 millimeters (mean±SD for 2 experiments).

[2] = tested on: Pseudomonas syringae (pv. tomato DC3000); test: Bacterial microplate culture (resazurin MIC); type: cell-based; conditions: Pseudomonas syringae; 24 hours at 28° C.; highest concentration 400 mg/L (1% of stock solutions); read-out: MIC
[3] = tested on: Ralstonia solanacearum (strain PSS4 from tomato); test: microbe, parasite or virus in culture; type: cell-based; conditions: Ralstonia solanacearum, 24 h
[4] = tested on: Xanthomonas oryzae (strain Gx0372); test: microbe, parasite or virus in culture; type: cell-based; conditions: Xanthomonas oryzae, 24 h
[5] = tested on: Xanthomonas campestris (strain Race 5 from brassica); test: Bacterial microplate culture (resazurin MIC); type: cell-based; conditions: Xanthomonas campestris; 24 hours at 28° C.; highest concentration 400 mg/L (1% of stock solutions); read-out: MIC
[6] = tested on: 4 plant pathogenic bacterial strains; conditions: KS at ≧10,000 milligrams/liter, any strain
[7] = read-out: Potassium sorbate IC50, mean ± SD, PDA
[8] = read-out: Potassium sorbate IC50, single experiments, PDA

For C/C=C/C=C/C(=O)[O-].[K+] [Potassium sorbate], the “Average diameter of fungal growth” value (Magnaporthe oryzae; KS 10 mg/L, PDA) was 17 mm, the “Average diameter of fungal growth” value (Magnaporthe oryzae; KS 30 mg/L, PDA) was 17 mm and the “Average diameter of fungal growth” value (Magnaporthe oryzae; KS 100 mg/L, PDA) was 15 mm. For the same compound, the “Average diameter of fungal growth” value (Magnaporthe oryzae; KS 150 mg/L, PDA) was 14 mm, the “Average diameter of fungal growth” value (Magnaporthe oryzae; KS 300 mg/L, PDA) was 9 mm and the “effect on fungal growth alone” value (Magnaporthe oryzae; KS 10 milligrams/liter alone) was “no effect”. The “Minimum KS concentration required for NG” value (Magnaporthe oryzae; PDA, NG = no fungal growth) was 1000 mg/L, the IC50 (Magnaporthe oryzae; Pyricularia oryzae, read-out: Potassium sorbate IC50, mean ± SD, PDA) was 140 µg/mL and the “KS concentration that completely inhibited growth” value (Magnaporthe oryzae; in the presence of […] Cu—Zn#12) was 30 milligrams/liter. The “times lower KS concentration for complete inhibition” value (Magnaporthe oryzae; with […] Cu—Zn#12 versus KS alone) was 33 times, the IC50 (Fusarium graminearum; [7]) was 185 µg/mL and the IC50 (Fusarium graminearum; [8]) was 150 µg/mL. The “Potassium sorbate IC50, single experiments” value (from here on “Potassium sorbate IC50”) (Fusarium graminearum; PDA) was 220 µg/mL, the “Minimum KS concentration required for NG” value (Fusarium graminearum; PDA, NG = no fungal growth) was 1000 mg/L and the IC50 (Botrytis cinerea; [7]) was 175 µg/mL. For the same compound, the IC50 (Botrytis cinerea; [8]) was 200 µg/mL, the “Potassium sorbate IC50” value (Botrytis cinerea; PDA) was 150 µg/mL and the “Minimum KS concentration required for NG” value (Botrytis cinerea; PDA, NG = no fungal growth) was 1000 mg/L. The “Potassium sorbate IC50” value (Rhizoctonia solani; PDA) was 100 µg/mL, the “Minimum KS concentration required for NG” value (Rhizoctonia solani; PDA, NG = no fungal growth) was 1000 mg/L and the IC50 (Rhizoctonia solani; [7]) was 91 µg/mL. It also gave an IC50 (Rhizoctonia solani; [8]) of 73 µg/mL, an IC50 (Alternaria alternata; [7]) of 190 µg/mL and an IC50 (Alternaria alternata; [8]) of 180 µg/mL. For the same compound, the “Potassium sorbate IC50” value (Alternaria alternata; PDA) was 200 µg/mL, the “Minimum KS concentration required for NG” value (Alternaria alternata; PDA, NG = no fungal growth) was 300 mg/L and the IC50 (Ustilago maydis; read-out: KS IC50, PDA) was 0.077 µg/mL. For the same compound, the IC50 (Ustilago maydis; [7]) was 77 µg/mL, the IC50 (Ustilago maydis; [8]) was 74 µg/mL and the “Potassium sorbate IC50” value (Ustilago maydis; PDA) was 80 µg/mL. The “Minimum KS concentration required for NG” value (Ustilago maydis; PDA, NG = no fungal growth) was 300 mg/L, the IC50 (Aspergillus niger; [7]) was 91 µg/mL and the IC50 (Aspergillus niger; [8]) was 82 µg/mL. The “Potassium sorbate IC50” value (Aspergillus niger; PDA) was 100 µg/mL, the “Minimum KS concentration required for NG” value (Aspergillus niger; PDA, NG = no fungal growth) was 300 mg/L and the “Minimum KS concentration required for NG” value ([1]; NG = no fungal growth) was 300 mg/L. For the same compound, the IC50 ([1]; Zymoseptoria tritici, read-out: Potassium sorbate IC50, single experiment) was 150 µg/mL, the “number of fungal strains whose growth was completely inhibited” value (plant pathogenic fungi; 300 milligrams/liter KS, eight strains tested) was 4 strains and the “fungal growth with KS” value (plant pathogenic fungi; all eight fungal strains) was “completely inhibited”. For the same compound, the “fungal growth with KS” value (plant pathogenic fungi; five fungal strains of FIG. 2) was “no growth”, the IC50 (plant pathogenic fungi; read-out: KS IC50 range on plant pathogenic fungi) was 77 to 190 µg/mL and the “inhibition of fungal growth” value (Trichophyton rubrum; KS 100 milligrams/liter on its own) was 6%. For the same compound, the “KS concentration required for complete inhibition of fungal growth” value (Trichophyton rubrum; KS alone (FIG. 9)) was 300 milligrams/liter, the “T. rubrum IC50 values: % of stock solution” value (Trichophyton rubrum; PDA, 33° C., 7 days) was 0.017 % of stock solution and the IC50 (Trichophyton rubrum; Trichophyton rubrum, 168 h, PDA, 33° C., 7 days, Cu—Zn#12: 50% each of elemental copper and zinc, read-out: T. rubrum IC50 values: Concentration) was 17 µg/mL. For the same compound, the MIC [2] was > 10000 µg/mL, the MIC [3] was > 10000 µg/mL and the MIC [4] was > 10000 µg/mL. The MIC [5] was > 10000 µg/mL and the “effect on bacterial growth” value [6] was “no effect”.
